In ChEMBL document CHEMBL1811847, “Initial efforts toward the optimization of arylomycins for antibiotic activity” (2011):
Converted amounts (≈) assume the structure as drawn.

Legend:
Type in all cases: functional
Staphylococcus aureus [1] = test: Antibacterial activity against wild-type Staphylococcus aureus NCTC 8325 after 24 hrs by CLSI broth microdilution method; conditions: NCTC 8325, 24 h
Pseudomonas aeruginosa [2] = test: Antibacterial activity against wild-type Pseudomonas aeruginosa PAO1 after 24 hrs by CLSI broth microdilution method; conditions: PAO1, 24 h
Escherichia coli [3] = test: Antibacterial activity against Escherichia coli MG1655 after 24 hrs by CLSI broth microdilution method; conditions: MG1655, 24 h
Escherichia coli [4] = test: Antibacterial activity against Escherichia coli MG1655 harboring lepB P84L mutant after 24 hrs by CLSI broth microdilution method; conditions: MG1655, 24 h
Staphylococcus aureus [5] = test: Antibacterial activity against Staphylococcus aureus NCTC 8325 harboring lepB P29S mutant after 24 hrs by CLSI broth microdilution method; conditions: NCTC 8325, 24 h
[6] = system: Staphylococcus epidermidis; test: Antibacterial activity against Staphylococcus epidermidis RP62A harboring spsB S29P mutant after 24 hrs by CLSI broth microdilution method
[7] = system: Staphylococcus epidermidis; test: Antibacterial activity against wild-type Staphylococcus epidermidis RP62A after 24 hrs by CLSI broth microdilution method
Pseudomonas aeruginosa [8] = test: Antibacterial activity against Pseudomonas aeruginosa PAO1 harboring lepB P84L mutant after 24 hrs by CLSI broth microdilution method; conditions: PAO1, 24 h
Staphylococcus aureus [9] = test: Antibacterial activity against methicillin-resistant Staphylococcus aureus isolate USA300

| SMILES | MIC (Staphylococcus aureus [1]) | MIC (Pseudomonas aeruginosa [2]) | MIC (Escherichia coli [3]) | MIC (Escherichia coli [4]) | MIC (Staphylococcus aureus [5]) | MIC [6] | MIC [7] | MIC (Pseudomonas aeruginosa [8]) | MIC (Staphylococcus aureus [9]) |
| --- | --- | --- | --- | --- | --- | --- | --- | --- | --- |
| CCCCCCCC(=O)N(C)[C@H](CO)C(=O)N[C@H](C)C(=O)NCC(=O)N(C)[C@@H]1C(=O)N[C@@H](C)C(=O)N[C@H](C(=O)O)Cc2ccc(O)c(c2)-c2cc1ccc2O | > 64 µg/mL | > 64 µg/mL | > 64 µg/mL | – | – | – | – | – | – |
| CCCCCCCCc1ccc(-c2ccc(C(=O)N(C)[C@H](CO)C(=O)N[C@H](C)C(=O)NCC(=O)N(C)[C@@H]3C(=O)N[C@@H](C)C(=O)N[C@H](C(=O)O)Cc4ccc(O)c(c4)-c4cc3ccc4O)cc2)cc1 | 16 µg/mL (≈ 17.1 µM) | > 64 µg/mL | > 64 µg/mL | 1 µg/mL (≈ 1.07 µM) | 8 µg/mL (≈ 8.56 µM) | 16 µg/mL (≈ 17.1 µM) | 1 µg/mL (≈ 1.07 µM) | – | – |
| CCCCCCCCCCCC(=O)N(C)[C@H](CO)C(=O)N[C@H](C)C(=O)NCC(=O)N(C)[C@@H]1C(=O)N[C@@H](C)C(=O)N[C@H](C(=O)O)Cc2ccc(O)c(c2)-c2cc1ccc2O | > 64 µg/mL | > 64 µg/mL | > 64 µg/mL | – | – | > 64 µg/mL | – | – | – |
| CCCCCCCCCC(=O)N(C)[C@H](CO)C(=O)N[C@H](C)C(=O)NCC(=O)N(C)[C@@H]1C(=O)N[C@@H](C)C(=O)N[C@H](C(=O)O)Cc2ccc(O)c(c2)-c2cc1ccc2O | > 64 µg/mL | > 64 µg/mL | > 64 µg/mL | – | – | – | – | – | – |
| CCCCCCCCCCCCCCCCCC(=O)N(C)[C@H](CO)C(=O)N[C@H](C)C(=O)NCC(=O)N(C)[C@@H]1C(=O)N[C@@H](C)C(=O)N[C@H](C(=O)O)Cc2ccc(O)c(c2)-c2cc1ccc2O | > 64 µg/mL | > 64 µg/mL | > 64 µg/mL | – | – | – | – | – | – |
| C[C@@H]1NC(=O)[C@@H](N(C)C(=O)CNC(=O)[C@@H](C)NC(=O)[C@@H](CO)N(C)C(=O)Cc2ccc3ccccc3c2)c2ccc(O)c(c2)-c2cc(ccc2O)C[C@@H](C(=O)O)NC1=O | > 64 µg/mL | > 64 µg/mL | > 64 µg/mL | – | – | – | > 64 µg/mL | – | – |
| C[C@@H]1NC(=O)[C@@H](N(C)C(=O)CNC(=O)[C@@H](C)NC(=O)[C@@H](CO)N(C)C(=O)Cc2ccc(-c3ccccc3)cc2)c2ccc(O)c(c2)-c2cc(ccc2O)C[C@@H](C(=O)O)NC1=O | > 64 µg/mL | > 64 µg/mL | > 64 µg/mL | – | – | > 64 µg/mL | 32 µg/mL (≈ 38.2 µM) | – | – |
| C[C@@H]1NC(=O)[C@@H](N(C)C(=O)CNC(=O)[C@@H](C)NC(=O)[C@@H](CO)N(C)C(=O)c2ccc(-c3ccccc3)cc2)c2ccc(O)c(c2)-c2cc(ccc2O)C[C@@H](C(=O)O)NC1=O | > 64 µg/mL | > 64 µg/mL | > 64 µg/mL | – | – | > 64 µg/mL | 64 µg/mL (≈ 77.8 µM) | – | – |
| CCc1ccc(-c2ccc(C(=O)N(C)[C@H](CO)C(=O)N[C@H](C)C(=O)NCC(=O)N(C)[C@@H]3C(=O)N[C@@H](C)C(=O)N[C@H](C(=O)O)Cc4ccc(O)c(c4)-c4cc3ccc4O)cc2)cc1 | > 64 µg/mL | > 64 µg/mL | > 64 µg/mL | 16 µg/mL (≈ 18.8 µM) | 64 µg/mL (≈ 75.2 µM) | > 64 µg/mL | 8 µg/mL (≈ 9.4 µM) | – | – |
| CCCCc1ccc(-c2ccc(C(=O)N(C)[C@H](CO)C(=O)N[C@H](C)C(=O)NCC(=O)N(C)[C@@H]3C(=O)N[C@@H](C)C(=O)N[C@H](C(=O)O)Cc4ccc(O)c(c4)-c4cc3ccc4O)cc2)cc1 | > 64 µg/mL | > 64 µg/mL | > 64 µg/mL | 4 µg/mL (≈ 4.55 µM) | 16 µg/mL (≈ 18.2 µM) | > 64 µg/mL | 1 µg/mL (≈ 1.14 µM) | – | – |
| CCCCCCc1ccc(-c2ccc(C(=O)N(C)[C@H](CO)C(=O)N[C@H](C)C(=O)NCC(=O)N(C)[C@@H]3C(=O)N[C@@H](C)C(=O)N[C@H](C(=O)O)Cc4ccc(O)c(c4)-c4cc3ccc4O)cc2)cc1 | 64 µg/mL (≈ 70.6 µM) | > 64 µg/mL | > 64 µg/mL | 1 µg/mL (≈ 1.1 µM) | 8 µg/mL (≈ 8.82 µM) | 32 µg/mL (≈ 35.3 µM) | 0.5 µg/mL (≈ 0.551 µM) | – | – |
| CCCCCCc1ccc(C(=O)N(C)[C@H](CO)C(=O)N[C@H](C)C(=O)NCC(=O)N(C)[C@@H]2C(=O)N[C@@H](C)C(=O)N[C@H](C(=O)O)Cc3ccc(O)c(c3)-c3cc2ccc3O)cc1 | > 64 µg/mL | > 64 µg/mL | > 64 µg/mL | 32 µg/mL (≈ 38.5 µM) | 64 µg/mL (≈ 77 µM) | > 64 µg/mL | 8 µg/mL (≈ 9.63 µM) | – | – |
| CCCCCCCCc1ccc(C(=O)N(C)[C@H](CO)C(=O)N[C@H](C)C(=O)NCC(=O)N(C)[C@@H]2C(=O)N[C@@H](C)C(=O)N[C@H](C(=O)O)Cc3ccc(O)c(c3)-c3cc2ccc3O)cc1 | > 64 µg/mL | > 64 µg/mL | > 64 µg/mL | 8 µg/mL (≈ 9.31 µM) | 8 µg/mL (≈ 9.31 µM) | > 64 µg/mL | 1 µg/mL (≈ 1.16 µM) | 64 µg/mL (≈ 74.5 µM) | – |
| CCCCCCCCCCc1ccc(C(=O)N(C)[C@H](CO)C(=O)N[C@H](C)C(=O)NCC(=O)N(C)[C@@H]2C(=O)N[C@@H](C)C(=O)N[C@H](C(=O)O)Cc3ccc(O)c(c3)-c3cc2ccc3O)cc1 | 32 µg/mL (≈ 36.1 µM) | > 64 µg/mL | > 64 µg/mL | 2 µg/mL (≈ 2.25 µM) | 4 µg/mL (≈ 4.51 µM) | 16 µg/mL (≈ 18 µM) | 0.5 µg/mL (≈ 0.564 µM) | 16 µg/mL (≈ 18 µM) | – |
| CCCCCCCCCCCCCCCC(=O)N[C@@H](CO)C(=O)N[C@@H](C)C(=O)NCC(=O)N(C)[C@@H]1C(=O)N[C@@H](C)C(=O)N[C@H](C(=O)O)Cc2ccc(O)c(c2)-c2cc1ccc2O | > 64 µg/mL | > 64 µg/mL | > 64 µg/mL | – | – | – | – | – | – |
| CCCCCCCCCCCCCCCC(=O)N[C@@H](CO)C(=O)N(C)[C@@H](C)C(=O)N(C)CC(=O)N(C)[C@@H]1C(=O)N[C@@H](C)C(=O)N[C@H](C(=O)O)Cc2ccc(O)c(c2)-c2cc1ccc2O | > 64 µg/mL | > 64 µg/mL | > 64 µg/mL | – | – | – | > 64 µg/mL | – | – |
| CCCCCCCCCCCCCCCC(=O)N1C[C@@H](O)C[C@H]1C(=O)N[C@@H](C)C(=O)NCC(=O)N(C)[C@@H]1C(=O)N[C@@H](C)C(=O)N[C@H](C(=O)O)Cc2ccc(O)c(c2)-c2cc1ccc2O | > 64 µg/mL | > 64 µg/mL | > 64 µg/mL | – | 4 µg/mL (≈ 4.48 µM) | 8 µg/mL (≈ 8.96 µM) | 4 µg/mL (≈ 4.48 µM) | – | – |
| CCCCCCCCCCCCCCCC(=O)N(C)[C@@H](CO)CC(=O)N[C@@H](C)C(=O)NCC(=O)N(C)[C@@H]1C(=O)N[C@@H](C)C(=O)N[C@H](C(=O)O)Cc2ccc(O)c(c2)-c2cc1ccc2O | 64 µg/mL (≈ 71.5 µM) | > 64 µg/mL | > 64 µg/mL | – | 16 µg/mL (≈ 17.9 µM) | 8 µg/mL (≈ 8.94 µM) | 4 µg/mL (≈ 4.47 µM) | – | – |
| CCCCCCCCCCCCCCCC(=O)N(C)[C@@H](CO)CCC(=O)N[C@@H](C)C(=O)NCC(=O)N(C)[C@@H]1C(=O)N[C@@H](C)C(=O)N[C@H](C(=O)O)Cc2ccc(O)c(c2)-c2cc1ccc2O | 16 µg/mL (≈ 17.6 µM) | > 64 µg/mL | > 64 µg/mL | – | 4 µg/mL (≈ 4.4 µM) | 16 µg/mL (≈ 17.6 µM) | 8 µg/mL (≈ 8.8 µM) | – | – |
| CCCCCCCCCCCCCCC(C)C(=O)N[C@@H](C)C(=O)NCC(=O)N(C)[C@@H]1C(=O)N[C@@H](C)C(=O)N[C@H](C(=O)O)Cc2ccc(O)c(c2)-c2cc1ccc2O (mixture of isomers) | > 64 µg/mL | > 64 µg/mL | > 64 µg/mL | – | – | > 64 µg/mL | 8 µg/mL | – | – |
| CCCCCCCCCCCCCCCC(=O)N(C)[C@@H](CO)C(=O)NCC(C)C(=O)NCC(=O)N(C)[C@@H]1C(=O)N[C@@H](C)C(=O)N[C@H](C(=O)O)Cc2ccc(O)c(c2)-c2cc1ccc2O (mixture of isomers) | > 64 µg/mL | > 64 µg/mL | > 64 µg/mL | 8 µg/mL | – | 16 µg/mL | 8 µg/mL | 16 µg/mL | – |
| CCCCCCCCCCCCCCCC(=O)N(C)[C@@H](CO)C(=O)NCCC(C)C(=O)NCC(=O)N(C)[C@@H]1C(=O)N[C@@H](C)C(=O)N[C@H](C(=O)O)Cc2ccc(O)c(c2)-c2cc1ccc2O (mixture of isomers) | > 64 µg/mL | > 64 µg/mL | > 64 µg/mL | – | 8 µg/mL | 8 µg/mL | 8 µg/mL | – | – |
| CC(C)CCCCCCCCC(=O)N(C)[C@H](CO)C(=O)N[C@H](C)C(=O)NCC(=O)N(C)[C@@H]1C(=O)N[C@@H](C)C(=O)N[C@H](C(=O)O)Cc2ccc(O)c(c2)-c2cc1ccc2O [ARYLOMYCIN A2] | – | – | – | – | – | – | – | – | 16 µg/mL (≈ 19.4 µM) |
| CCCCCCCCCCCCCCCC(=O)N(C)[C@H](CO)C(=O)N[C@H](C)C(=O)NCC(=O)N(C)[C@@H]1C(=O)N[C@@H](C)C(=O)N[C@H](C(=O)O)Cc2ccc(O)c(c2)-c2cc1ccc2O [ARYLOMYCIN C16] | > 64 µg/mL | > 64 µg/mL | > 64 µg/mL | – | – | – | 0.5 µg/mL (≈ 0.567 µM) | 8 µg/mL (≈ 9.08 µM) | 16 µg/mL (≈ 18.2 µM) |
